Measured values published in patent US10945434B2, “Azole derivative, intermediate compound, method for producing azole derivative, agricultural or horticultural chemical agent, and protective agent for industrial material” (priority 2017, dated 2021).

Experiments:
[1] = tested on: puccinia recondite-causing germs; test: Puccinia Recondite control effect test (spray on wheat); assay type: in vivo
Septoria tritici = settings: in vivo
Procedure: The severity of flag leaf and second leaf was evaluated after 50 days lapsed after the second spraying. The control value was calculated from the average severity of the flag leaf and the second leaf. Control value (%)=(1−average severity of treated area/average severity of untreated area)×100

[2] = tested on: puccinia recondite-causing germs; settings: in vivo
gray mold fungi = test: Cucumber gray mold disease control effect test; assay type: in vivo, Botrytis cinerea; settings: 100 g/ha; spray on cotyledon cucumber; 4 days after the inoculation
Procedure: The compounds of the present invention were adjusted to a predetermined concentration ([…]) according to Test Example 2 in a cotyledon cucumber (variety: Sagami Hanjiro Cucumber) cultivated using a rectangular plastic pot (6 cm×6 cm), and sprayed at a ratio of 1,000 L/ha. After air-drying the spray leaves, a paper disc (8 mm in diameter) impregnated with the spore solution of gray mold fungi was placed and kept at 20° C. under high humidity conditions. On 4 days after the inoculation, a morbidity of cucumber gray mold disease was examined, and a control value was calculated by the following Equation. Control value (%)=(1−average morbidity of sprayed area/average morbidity of unsprayed area)×100
In addition, the morbidity was determined based on the following Table 12.

[3] = 3.13 g/ha, spray on second leaf stage wheat, 14 days after the inoculation

SMILES | control value ([1]; in vivo) [%] | control value (Septoria tritici) [%] | Control value (%) [2] [%] | control value [1, 3] [%] | control value (gray mold fungi) [%]
CC(O)(Cn1cncn1)c1ccc(Oc2ccc(Cl)cc2)cc1C(F)(F)F (stereo not shown) | 20 | 88 | 86 | – | –
COC(=O)C(O)(Cn1cncn1)c1ccc(Oc2ccc(Cl)cc2)cc1Cl (stereo not shown) [Compound I-1, methyl 2-hydroxy-2-(2-chloro-4-(4-chlorophenoxy)phenyl)-3-(1H-1,2,4-triazol-1-yl)propanoate] | – | – | 99 | 73 | –
COC(=O)C(O)(Cn1cncn1)c1ccc(Oc2cccc(Cl)c2)cc1Cl (stereo not shown) [Compound I-20, methyl 2-(2-chloro-4-(3-chlorophenoxy)phenyl)-2-hydroxy-3-(1H-1,2,4-triazol-1-yl)propanoate] | – | – | – | 80 | –
COC(=O)C(O)(Cn1cncn1)c1ccc(Oc2ccccc2)cc1 (stereo not shown) [control compound B, methyl 2-hydroxy-2-(4-phenoxyphenyl)-3-(1H-1,2,4-triazol-1-yl)propanoate] | – | – | – | – | 0
